Legend:
[1] = test system: L1210; experiment: Antitumor activity against mouse L1210 cell xenografted mouse at 15000 ug/kg; assay type: functional
[2] = test system: Mus musculus; experiment: Toxicity in mouse P388 cells xenografted mouse at 0.22 mg/kg/day for 10 days; conditions: in vivo, 240 h
[3] = test system: L1210; experiment: Antitumor activity against mouse L1210 cell xenografted mouse at 200 ug/kg; assay type: functional
[4] = test system: P388; experiment: Antitumor activity against mouse P388 cells at 25 ug/kg by in vivo 3PS assay; assay type: functional
[5] = test system: P388; experiment: Antitumor activity against mouse P388 cells xenografted mouse at 0.025 mg/kg/day for 10 days by 3PS assay; assay type: functional
[6] = test system: P388; experiment: Antitumor activity against mouse P388 cells in at 1.4 mg/kg by in vivo 3PS assay; assay type: functional
[7] = test system: A2780; experiment: Antitumor activity against human A2780 cell xenografted athymic mouse at 125 ug/kg/day; assay type: functional; conditions: read-out: TGI
[8] = test system: L1210; experiment: Antitumor activity against mouse L1210 cell xenografted mouse at 400 ug/kg; assay type: functional
[9] = test system: KB; experiment: Antitumor activity against human KB cell xenografted mouse assessed as inhibition of tumor growth at 900 ug/kg administered every 2 days for 6 days; assay type: functional
[10] = Antitumor activity against multidrug resistant human KBv200 cell xenografted mouse assessed as inhibition of tumor growth at 900 ug/kg administered every 2 days for 6 days; assay type: functional
[11] = test system: A2780; experiment: Antitumor activity against human A2780 cell xenografted athymic mouse at 1000 ug/kg/day; assay type: functional; conditions: read-out: TGI
[12] = test system: P388; experiment: Antitumor activity against mouse P388 cells at 250 ug/kg by in vivo 3PS assay; assay type: functional
[13] = test system: P388; experiment: Antitumor activity against mouse P388 cells xenografted mouse at 0.95 mg/kg/day for 10 days by 3PS assay; assay type: functional

Compound `CC(=O)O[C@H]1C(=O)[C@@]2(C)[C@H]([C@H](OC(=O)c3ccccc3)[C@]3(O)C[C@H](OC(=O)[C@H](O)[C@@H](NC(=O)c4ccccc4)c4ccccc4)C(C)=C1C3(C)C)[C@]1(OC(C)=O)CO[C@@H]1C[C@@H]2O` [PACLITAXEL] has a T/C [1] of 139%.
With `CCCCCCCCCC[C@@H](O)[C@H]1CC[C@H]([C@H]2CC[C@H]([C@H](O)CCCCCCCCCC[C@@H](O)CC3=C[C@H](C)OC3=O)O2)O1` [ASIMICIN] the Activity [2] was “Toxic”.
`CCCCCCCCCCC(O)C1CCC(C2CCC(C(O)CCCCCCCC[C@H](O)CC3=C[C@@H](C)OC3=O)O2)O1` (some centres undefined) [ASIMICIN] showed a T/C [3] of 131%, a T/C [4] of 124% and a T/C [5] of 124%.
`CCCCCCCCCC[C@H](OC(C)=O)[C@H]1CC[C@H]([C@H]2CC[C@H]([C@H](O)CCCCCCCCCCCCC3=C[C@H](C)OC3=O)O2)O1` [UVARICIN] showed a T/C [6] of 157%.
Compound `CCCCCCCCCC[C@H](O)[C@H]1CC[C@H]([C@H]2CC[C@H]([C@H](O)CCCCCCCCCC[C@@H]3CC(CC(C)=O)C(=O)O3)O2)O1` (some centres undefined) [BULLATACINONE] has an inhibition in vivo at 0.125 mg/kg/day [7] of 52% and a T/C [8] of 144%.
Work on `CCCCC[C@@H](O)[C@H](O)CCC[C@@H](O)[C@H]1CC[C@H]([C@H]2CC[C@H]([C@H](O)CCCCCCCCCCCCC3=C[C@H](C)OC3=O)O2)O1` yielded an inhibition in vivo at 0.9 mg/kg [9] of 52.3% and an inhibition in vivo at 0.9 mg/kg [10] of 56.5%.
With `CCCCCCCCCC[C@H](O)[C@H]1CC[C@H]([C@H](O)CC[C@H](O)[C@@H]2CC[C@@H](CCCCCCC[C@@H](O)CC3=C[C@H](C)OC3=O)O2)O1` [BULLATALICIN] the inhibition in vivo at 1 mg/kg/day [11] was 75%.
Work on `CCCCCCCCCCC(O)C1CCC(C2CCC(C(O)CCCCCCCCCCC(O)CC3=CC(C)OC3=O)O2)O1` (centres undefined) [ROLLINIASTATIN] yielded a T/C [12] of 128%.
Work on `CCCCCCCCCCCC[C@@H](O)[C@H]1CC[C@H]([C@H](O)CCCC[C@H](O)CCCCC[C@@H](O)CC2=CC(C)OC2=O)O1` (some centres undefined) [ANNONACIN] yielded a T/C [13] of 124%.
Compound `CCCCCCCCCCC(O)C1CCC(C2CCC(C(O)C(=O)CCCCCCCCCCCC3CC(C)OC3=O)O2)O1` (centres undefined) [ROLLINONE] has a T/C [6] of 147%.
